According to patent US20200131196A1 (Mount Tam Therapeutics, Inc., priority 2017, published 2020):

Tests used:
CHP-212 = test: OncoPanel cell proliferation assay, CHP-212
Description: (§5) Cells were seeded into 384-well plates and incubated in a humidified atmosphere of 5% CO2 at 37° C. Compounds were added the day following cell seeding. At the same time, a time zero untreated cell plate was generated. After a 3-day incubation period, cells were fixed and stained to allow fluorescence imaging of nuclei. Compounds (1 mM stock solutions) were serially diluted in half-log steps from the highest test concentration (1 micromol), and assayed over 10 concentrations with a maximum assay concentration of 0.1% DMSO. Automated fluorescence microscopy was carried out using a Molecular Devices ImageXpress Micro XL high-content imager, and images were collected with a 4× objective. 16-bit TIFF images were acquired and analyzed with MetaXpress 5.1.0.41 software.
(§6) GI50 is the concentration needed to reduce the observed growth by half (midway between the curve maximum and the time zero value). […] In rare instances, values <0 or >10 may be observed. […] Curve-fitting, calculations, and report generation was performed using a custom data reduction engine and MathIQ based software (AIM).

CAMA-1 = test: OncoPanel cell proliferation assay, CAMA-1
Description: as §5, §6

786-O = test: OncoPanel cell proliferation assay, 786-O; format: cell-based, human
Description: (§1) Cells were grown in RPMI 1640, 10% FBS, 2 mM L-alanyl-L-glutamine, 1 mM Na pyruvate, or a special medium. Cells were seeded into 384-well plates and incubated in a humidified atmosphere of 5% CO2 at 37° C. Compounds were added the day following cell seeding. At the same time, a time zero untreated cell plate was generated. After a 3-day incubation period, cells were fixed and stained to allow fluorescence imaging of nuclei. Compounds (1 mM stock solutions) were serially diluted in half-log steps from the highest test concentration ([…]), and assayed over 10 concentrations with a maximum assay concentration of 0.1% DMSO. Automated fluorescence microscopy was carried out using a Molecular Devices ImageXpress Micro XL high-content imager, and images were collected with a 4× objective. 16-bit TIFF images were acquired and analyzed with MetaXpress 5.1.0.41 software.
(§2) Cell proliferation was measured by the fluorescence intensity of an incorporated nuclear dye. The output is referred to as the relative cell count, where the measured nuclear intensity is transformed to percent of control (POC) using the following formula: […]
(§3) Cellular response parameters were calculated using nonlinear regression to a sigmoidal single-site dose response model:
(§4) EC50 is the test compound concentration at the curve inflection point or half the effective response (parameter C of the fitted curve solution). GI50 is the concentration needed to reduce the observed growth by half (midway between the curve maximum and the time zero value). “Cell Count Activity Area” is an estimate of the integrated area above the curve (Barretina, et al. The Cancer Cell Line Encyclopedia enables predictive modelling of anticancer drug sensitivity. Nature 483: 603-607). […] In rare instances, values <0 or >10 may be observed. […] Curve-fitting, calculations, and report generation was performed using a custom data reduction engine and MathIQ based software (AIM).

TF-1 = test: OncoPanel cell proliferation assay, TF-1; format: cell-based, human
Description: as §1, §2, §3, §4

SK-UT-1 = test: OncoPanel cell proliferation assay, SK-UT-1
Description: as §5, §6

CEM-C1 = test: OncoPanel cell proliferation assay, CEM-C1; format: cell-based, human
Description: as §1, §2, §3, §4

## CO[C@H]1C[C@@H]2CC[C@@H](C)[C@@](O)(O2)C(=O)C(=O)N2CCCC[C@H]2C(=O)O[C@H]([C@H](C)C[C@H]2C[C@H]3C[C@@H]2C[C@@H]3O)CC(=O)[C@H](C)/C=C(\C)[C@@H](O)[C@@H](OC)C(=O)[C@H](C)C[C@H](C)/C=C/C=C/C=C/1C [Formula II, C37-[(1R,2S,4R,5S)-5-hyhroxybicyclo[2.2.1]heptane] rapamycin]
CHP-212; CHP-212
  Cell Count Activity Area: 3.87
CHP-212; CHP-212, 1.00E+00 microM
  Relative cell count (%) Mean: 43.7%
CHP-212; CHP-212, 1.00E-01 microM
  Relative cell count (%) Mean: 47.0%
CHP-212; CHP-212, 1.00E-02 microM
  Relative cell count (%) Mean: 57.6%
CHP-212; CHP-212, 1.00E-03 microM
  Relative cell count (%) Mean: 59.5%
CHP-212; CHP-212, 1.01E-04 microM
  Relative cell count (%) Mean: 82.6%
CHP-212; CHP-212, 3.16E-01 microM
  Relative cell count (%) Mean: 46.9%
CHP-212; CHP-212, 3.17E-02 microM
  Relative cell count (%) Mean: 54.5%
CHP-212; CHP-212, 3.17E-03 microM
  Relative cell count (%) Mean: 59.2%
CHP-212; CHP-212, 3.18E-04 microM
  Relative cell count (%) Mean: 68.8%
CHP-212; CHP-212, 3.18E-05 microM
  Relative cell count (%) Mean: 93.4%
CHP-212; Homo sapiens, CHP-212, read-out: Cell Count EC50
  EC50: 0.267 nM
CHP-212; Homo sapiens, CHP-212, read-out: Cell Count GI50
  GI50: 0.349 nM
CHP-212; Homo sapiens, CHP-212, read-out: Cell Count IC50
  IC50: 34 nM
CAMA-1; CAMA-1
  Cell Count Activity Area: 4.22
CAMA-1; CAMA-1, 1.00E+00 microM
  Relative cell count (%) Mean: 42.0%
CAMA-1; CAMA-1, 1.00E-01 microM
  Relative cell count (%) Mean: 45.4%
CAMA-1; CAMA-1, 1.00E-02 microM
  Relative cell count (%) Mean: 54.6%
CAMA-1; CAMA-1, 1.00E-03 microM
  Relative cell count (%) Mean: 64.5%
CAMA-1; CAMA-1, 1.01E-04 microM
  Relative cell count (%) Mean: 98.0%
CAMA-1; CAMA-1, 3.16E-01 microM
  Relative cell count (%) Mean: 43.0%
CAMA-1; CAMA-1, 3.17E-02 microM
  Relative cell count (%) Mean: 45.1%
CAMA-1; CAMA-1, 3.17E-03 microM
  Relative cell count (%) Mean: 55.9%
CAMA-1; CAMA-1, 3.18E-04 microM
  Relative cell count (%) Mean: 79.7%
CAMA-1; CAMA-1, 3.18E-05 microM
  Relative cell count (%) Mean: 96.5%
CAMA-1; Homo sapiens, CAMA-1, read-out: Cell Count EC50
  EC50: 0.491 nM
CAMA-1; Homo sapiens, CAMA-1, read-out: Cell Count GI50
  GI50: 0.647 nM
CAMA-1; Homo sapiens, CAMA-1, read-out: Cell Count IC50
  IC50: 4.34 nM
786-O; 786-0, 1.00E+00 microM
  Relative cell count (%) Mean: 36.7%
786-O; 786-0, 1.00E-01 microM
  Relative cell count (%) Mean: 45.5%
786-O; 786-0, 1.00E-02 microM
  Relative cell count (%) Mean: 55.7%
786-O; 786-0, 1.00E-03 microM
  Relative cell count (%) Mean: 78.6%
786-O; 786-0, 1.01E-04 microM
  Relative cell count (%) Mean: 92.0%
786-O; 786-0, 3.16E-01 microM
  Relative cell count (%) Mean: 43.3%
786-O; 786-0, 3.17E-02 microM
  Relative cell count (%) Mean: 48.2%
786-O; 786-0, 3.17E-03 microM
  Relative cell count (%) Mean: 65.0%
786-O; 786-0, 3.18E-04 microM
  Relative cell count (%) Mean: 80.1%
786-O; 786-0, 3.18E-05 microM
  Relative cell count (%) Mean: 96.8%
786-O; 786-O
  Cell Count Activity Area: 4.01
786-O; Homo sapiens, 786-0, 786-O, read-out: Cell Count EC50
  EC50: 1.59 nM
786-O; Homo sapiens, 786-0, 786-O, read-out: Cell Count GI50
  GI50: 7.1 nM
786-O; Homo sapiens, 786-0, 786-O, read-out: Cell Count IC50
  IC50: 16.2 nM
TF-1
  Cell Count Activity Area: 1.08
TF-1; 1.00E+00 microM
  Relative cell count (%) Mean: 80.8%
TF-1; 1.00E-01 microM
  Relative cell count (%) Mean: 80.1%
TF-1; 1.00E-02 microM
  Relative cell count (%) Mean: 82.8%
TF-1; 1.00E-03 microM
  Relative cell count (%) Mean: 88.7%
TF-1; 1.01E-04 microM
  Relative cell count (%) Mean: 93.1%
TF-1; 3.16E-01 microM
  Relative cell count (%) Mean: 79.6%
TF-1; 3.17E-02 microM
  Relative cell count (%) Mean: 81.7%
TF-1; 3.17E-03 microM
  Relative cell count (%) Mean: 80.8%
TF-1; 3.18E-04 microM
  Relative cell count (%) Mean: 89.0%
TF-1; 3.18E-05 microM
  Relative cell count (%) Mean: 94.4%
TF-1; Homo sapiens, read-out: Cell Count EC50
  EC50: > 1000 nM
TF-1; Homo sapiens, read-out: Cell Count GI50
  GI50: > 1000 nM
TF-1; Homo sapiens, read-out: Cell Count IC50
  IC50: > 1000 nM
SK-UT-1; Homo sapiens, SK-UT-1, read-out: Cell Count EC50
  EC50: 1.51 nM
SK-UT-1; Homo sapiens, SK-UT-1, read-out: Cell Count GI50
  GI50: 11.3 nM
SK-UT-1; Homo sapiens, SK-UT-1, read-out: Cell Count IC50
  IC50: 38.2 nM
SK-UT-1; SK-UT-1
  Cell Count Activity Area: 3.48
SK-UT-1; SK-UT-1, 1.00E+00 microM
  Relative cell count (%) Mean: 47.0%
SK-UT-1; SK-UT-1, 1.00E-01 microM
  Relative cell count (%) Mean: 59.0%
SK-UT-1; SK-UT-1, 1.00E-02 microM
  Relative cell count (%) Mean: 76.1%
SK-UT-1; SK-UT-1, 1.00E-03 microM
  Relative cell count (%) Mean: 82.8%
SK-UT-1; SK-UT-1, 1.01E-04 microM
  Relative cell count (%) Mean: 114.4%
SK-UT-1; SK-UT-1, 3.16E-01 microM
  Relative cell count (%) Mean: 53.3%
SK-UT-1; SK-UT-1, 3.17E-02 microM
  Relative cell count (%) Mean: 61.4%
SK-UT-1; SK-UT-1, 3.17E-03 microM
  Relative cell count (%) Mean: 75.4%
SK-UT-1; SK-UT-1, 3.18E-04 microM
  Relative cell count (%) Mean: 96.2%
SK-UT-1; SK-UT-1, 3.18E-05 microM
  Relative cell count (%) Mean: 116.9%
CEM-C1
  Cell Count Activity Area: 3.13
CEM-C1; 1.00E+00 microM
  Relative cell count (%) Mean: 51.5%
CEM-C1; 1.00E-01 microM
  Relative cell count (%) Mean: 56.2%
CEM-C1; 1.00E-02 microM
  Relative cell count (%) Mean: 66.8%
CEM-C1; 1.00E-03 microM
  Relative cell count (%) Mean: 82.0%
CEM-C1; 1.01E-04 microM
  Relative cell count (%) Mean: 98.1%
CEM-C1; 3.16E-01 microM
  Relative cell count (%) Mean: 52.4%
